# According to patent US10597388B2, “Pyridazinone herbicides” (FMC CORPORATION, priority 2014, dated 2020):
# Columns and labels:
# Assay in all cases: Test D controlled growth environment herbicide test, pre- and postemergence
# Format in all cases: in vivo
# [1] = system: Russian thistle (Salsola kali)
# Outline: (§1)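 Pre-emergence: seeds sown in silt loam soil were sprayed with compound in a non-phytotoxic solvent mix containing surfactant. Post-emergence: plants at 2 to 18 cm (1- to 4-leaf stage) in peat moss/vermiculite medium got the same formulation. Visual 0–100 rating versus controls after 14 to 21 d.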
# [2] = system: barley, spring (spring barley, Hordeum vulgare)
# Outline: as §1
# [3] = system: buckwheat, wild (wild buckwheat, Polygonum convolvulus)
# Outline: as §1
# [4] = system: canarygrass (Phalaris minor)
# Outline: as §1
# [5] = system: deadnettle (henbit deadnettle, Lamium amplexicaule)
# Outline: as §1
# [6] = system: field poppy (Papaver rhoeas)
# Outline: as §1
# [7] = system: oat, wild (wild oat, Avena fatua)
# Outline: as §1
# [8] = system: oilseed rape (Brassica napus)
# Outline: as §1
# [9] = system: radish, wild (wild radish, Raphanus raphanistrum)
# Outline: as §1
# [10] = system: ryegrass, Italian (Italian ryegrass, Lolium multiflorum)
# Outline: as §1
# [11] = system: speedwell (bird's-eye speedwell, Veronica persica)
# Outline: as §1
# [12] = system: wheat, spring (spring wheat, Triticum aestivum)
# Outline: as §1
# [13] = system: windgrass (Apera spica-venti)
# Outline: as §1
# [14] = Postemergence, 31 g ai/ha, scale 0 to 100 (0 no effect, 100 complete control)
# [15] = Postemergence, 125 g ai/ha, visual rating on scale 0 (no effect) to 100 (complete control), 14 to 21 d
# [16] = Postemergence, 250 g ai/ha, scale 0 to 100 (0 no effect, 100 complete control)
# [17] = Preemergence, 62 g ai/ha, scale 0 to 100 (0 no effect, 100 complete control)
# [18] = Preemergence, 125 g ai/ha, scale 0 to 100 (0 no effect, 100 complete control)
# [19] = Preemergence, 250 g ai/ha, scale 0 to 100, 0 no effect, 100 complete control
# [20] = postemergence, 62 g ai/ha, scale 0 to 100, 0 no effect, 100 complete control
smiles,measurement,setting,value
Cn1nc(Br)c(O)c(-c2cccc3ccccc23)c1=O [Compound 20],Russian Thistle plant response rating,[1]; [14],70
same,"Plant response rating, Russian Thistle",[1]; [15],80
same,"Plant response rating, Russian Thistle",[1]; [16],98
same,"Plant response rating (scale of 0 to 100), Russian Thistle","[1]; Preemergence, 31 g ai/ha",0
same,"Plant response rating, Russian Thistle",[1]; [17],30
same,"Plant response rating, Russian Thistle",[1]; [18],40
same,"Plant response rating, Russian Thistle",[1]; [19],70
same,"Plant response rating, Russian Thistle",[1]; [20],75
same,"Plant response rating, Barley, Spring",[2]; [14],0
same,"Plant response rating, Barley, Spring",[2]; [15],0
same,"Plant response rating, Barley, Spring",[2]; [16],0
same,"Plant response rating (scale of 0 to 100), Barley, Spring","[2]; Preemergence, 31 g ai/ha",0
same,"Plant response rating, Barley, Spring",[2]; [17],0
same,"Plant response rating, Barley, Spring",[2]; [18],0
same,"Barley, Spring plant response rating",[2]; [19],0
same,"Plant response rating, Barley, Spring",[2]; [20],0
same,"Buckwheat, Wild plant response rating",[3]; [14],80
same,"Plant response rating, Buckwheat, Wild",[3]; [15],100
same,"Plant response rating, Buckwheat, Wild",[3]; [16],100
same,"Plant response rating (scale of 0 to 100), Buckwheat, Wild","[3]; Preemergence, 31 g ai/ha",15
same,"Plant response rating, Buckwheat, Wild",[3]; [17],20
same,"Plant response rating, Buckwheat, Wild",[3]; [18],100
same,"Plant response rating, Buckwheat, Wild",[3]; [19],100
same,"Plant response rating, Buckwheat, Wild",[3]; [20],100
same,Canarygrass plant response rating,[4]; [14],10
same,"Plant response rating, Canarygrass",[4]; [15],45
same,"Plant response rating, Canarygrass",[4]; [16],55
same,"Plant response rating (scale of 0 to 100), Canarygrass","[4]; Preemergence, 31 g ai/ha",25
same,"Plant response rating, Canarygrass",[4]; [17],35
same,"Plant response rating, Canarygrass",[4]; [18],70
same,"Plant response rating, Canarygrass",[4]; [19],80
same,"Plant response rating, Canarygrass",[4]; [20],30
same,Deadnettle plant response rating,[5]; [14],25
same,"Plant response rating, Deadnettle",[5]; [15],55
same,"Plant response rating, Deadnettle",[5]; [16],65
same,"Plant response rating (scale of 0 to 100), Deadnettle","[5]; Preemergence, 31 g ai/ha",0
same,"Plant response rating, Deadnettle",[5]; [17],0
same,"Plant response rating, Deadnettle",[5]; [18],10
same,"Plant response rating, Deadnettle",[5]; [19],20
same,"Plant response rating, Deadnettle",[5]; [20],35
same,Field Poppy plant response rating,[6]; [14],30
same,"Plant response rating, Field Poppy",[6]; [15],100
same,"Plant response rating, Field Poppy",[6]; [16],100
same,"Plant response rating (scale of 0 to 100), Field Poppy","[6]; Preemergence, 31 g ai/ha",70
same,"Plant response rating, Field Poppy",[6]; [17],70
same,"Plant response rating, Field Poppy",[6]; [18],95
same,"Plant response rating, Field Poppy",[6]; [19],100
same,"Plant response rating, Field Poppy",[6]; [20],60
same,"Oat, Wild plant response rating",[7]; [14],20
same,"Plant response rating, Oat, Wild",[7]; [15],60
same,"Plant response rating, Oat, Wild",[7]; [16],75
same,"Plant response rating (scale of 0 to 100), Oat, Wild","[7]; Preemergence, 31 g ai/ha",35
same,"Plant response rating, Oat, Wild",[7]; [17],65
same,"Plant response rating, Oat, Wild",[7]; [18],85
same,"Plant response rating, Oat, Wild",[7]; [19],95
same,"Plant response rating, Oat, Wild",[7]; [20],25
same,Oilseed Rape plant response rating,[8]; [14],0
same,"Plant response rating, Oilseed Rape",[8]; [15],5
same,"Plant response rating, Oilseed Rape",[8]; [16],5
same,"Plant response rating (scale of 0 to 100), Oilseed Rape","[8]; Preemergence, 31 g ai/ha",0
same,"Plant response rating, Oilseed Rape",[8]; [17],0
same,"Plant response rating, Oilseed Rape",[8]; [18],0
same,"Plant response rating, Oilseed Rape",[8]; [19],0
same,"Plant response rating, Oilseed Rape",[8]; [20],0
same,"Radish, Wild plant response rating",[9]; [14],50
same,"Plant response rating, Radish, Wild",[9]; [15],70
same,"Plant response rating, Radish, Wild",[9]; [16],65
same,"Plant response rating (scale of 0 to 100), Radish, Wild","[9]; Preemergence, 31 g ai/ha",0
same,"Plant response rating, Radish, Wild",[9]; [17],0
same,"Plant response rating, Radish, Wild",[9]; [18],50
same,"Plant response rating, Radish, Wild",[9]; [19],65
same,"Plant response rating, Radish, Wild",[9]; [20],40
same,"Ryegrass, Italian plant response rating",[10]; [14],55
same,"Plant response rating, Ryegrass, Italian",[10]; [15],80
same,"Plant response rating, Ryegrass, Italian",[10]; [16],90
same,"Plant response rating (scale of 0 to 100), Ryegrass, Italian","[10]; Preemergence, 31 g ai/ha",90
same,"Plant response rating, Ryegrass, Italian",[10]; [17],100
same,"Plant response rating, Ryegrass, Italian",[10]; [18],100
same,"Plant response rating, Ryegrass, Italian",[10]; [19],100
same,"Plant response rating, Ryegrass, Italian",[10]; [20],70
same,Speedwell plant response rating,[11]; [14],5
same,"Plant response rating, Speedwell",[11]; [15],100
same,"Plant response rating, Speedwell",[11]; [16],100
same,"Plant response rating (scale of 0 to 100), Speedwell","[11]; Preemergence, 31 g ai/ha",70
same,"Plant response rating, Speedwell",[11]; [17],70
same,"Plant response rating, Speedwell",[11]; [18],70
same,"Plant response rating, Speedwell",[11]; [19],90
same,"Plant response rating, Speedwell",[11]; [20],15
same,"Wheat, Spring plant response rating",[12]; [14],0
same,"Plant response rating, Wheat, Spring",[12]; [15],15
same,"Plant response rating, Wheat, Spring",[12]; [16],20
same,"Plant response rating (scale of 0 to 100), Wheat, Spring","[12]; Preemergence, 31 g ai/ha",0
same,"Plant response rating, Wheat, Spring",[12]; [17],15
same,"Plant response rating, Wheat, Spring",[12]; [18],25
same,"Plant response rating, Wheat, Spring",[12]; [19],45
same,"Plant response rating, Wheat, Spring",[12]; [20],15
same,Windgrass plant response rating,[13]; [14],25
same,"Plant response rating, Windgrass",[13]; [15],30
same,"Plant response rating, Windgrass",[13]; [16],40
same,"Plant response rating (scale of 0 to 100), Windgrass","[13]; Preemergence, 31 g ai/ha",35
same,"Plant response rating, Windgrass",[13]; [17],40
same,"Plant response rating, Windgrass",[13]; [18],50
same,"Plant response rating, Windgrass",[13]; [19],60
same,"Plant response rating, Windgrass",[13]; [20],30
Cc1cc(C)c2ccccc2c1-c1c(O)c(C)nn(C)c1=O [Compound 21],Russian Thistle plant response rating,[1]; [14],70
same,"Plant response rating, Russian Thistle",[1]; [15],80
same,"Plant response rating, Russian Thistle",[1]; [16],85
same,"Plant response rating, Russian Thistle",[1]; [20],75
same,"Plant response rating, Barley, Spring",[2]; [14],0
same,"Plant response rating, Barley, Spring",[2]; [15],10
same,"Plant response rating, Barley, Spring",[2]; [16],30
same,"Plant response rating, Barley, Spring",[2]; [20],5
same,"Buckwheat, Wild plant response rating",[3]; [14],100
same,"Plant response rating, Buckwheat, Wild",[3]; [15],100
same,"Plant response rating, Buckwheat, Wild",[3]; [16],100
same,"Plant response rating, Buckwheat, Wild",[3]; [20],100
same,Canarygrass plant response rating,[4]; [14],80
same,"Plant response rating, Canarygrass",[4]; [15],85
same,"Plant response rating, Canarygrass",[4]; [16],95
same,"Plant response rating, Canarygrass",[4]; [20],80
same,Deadnettle plant response rating,[5]; [14],90
same,"Plant response rating, Deadnettle",[5]; [15],95
same,"Plant response rating, Deadnettle",[5]; [16],100
same,"Plant response rating, Deadnettle",[5]; [20],100
same,Field Poppy plant response rating,[6]; [14],85
same,"Plant response rating, Field Poppy",[6]; [15],100
same,"Plant response rating, Field Poppy",[6]; [16],100
same,"Plant response rating, Field Poppy",[6]; [20],100
same,"Oat, Wild plant response rating",[7]; [14],80
same,"Plant response rating, Oat, Wild",[7]; [15],85
same,"Plant response rating, Oat, Wild",[7]; [16],100
same,"Plant response rating, Oat, Wild",[7]; [20],85
same,Oilseed Rape plant response rating,[8]; [14],80
same,"Plant response rating, Oilseed Rape",[8]; [15],100
same,"Plant response rating, Oilseed Rape",[8]; [16],100
same,"Plant response rating, Oilseed Rape",[8]; [20],100
same,"Radish, Wild plant response rating",[9]; [14],95
same,"Plant response rating, Radish, Wild",[9]; [15],100
same,"Plant response rating, Radish, Wild",[9]; [16],100
same,"Plant response rating, Radish, Wild",[9]; [20],100
same,"Ryegrass, Italian plant response rating",[10]; [14],80
same,"Plant response rating, Ryegrass, Italian",[10]; [15],85
same,"Plant response rating, Ryegrass, Italian",[10]; [16],80
same,"Plant response rating, Ryegrass, Italian",[10]; [20],80
same,Speedwell plant response rating,[11]; [14],100
same,"Plant response rating, Speedwell",[11]; [15],100
same,"Plant response rating, Speedwell",[11]; [16],100
same,"Plant response rating, Speedwell",[11]; [20],100
same,"Wheat, Spring plant response rating",[12]; [14],20
same,"Plant response rating, Wheat, Spring",[12]; [15],40
same,"Plant response rating, Wheat, Spring",[12]; [16],50
same,"Plant response rating, Wheat, Spring",[12]; [20],30
same,Windgrass plant response rating,[13]; [14],70
same,"Plant response rating, Windgrass",[13]; [15],85
same,"Plant response rating, Windgrass",[13]; [16],85
same,"Plant response rating, Windgrass",[13]; [20],80
